Assay results from US20230105212A1, “BIPHENYL DERIVATIVE INHIBITOR, PREPARATION METHOD THEREFOR AND USE THEREOF” (SHANGHAI HANSOH BIOMEDICAL CO., LTD., priority 2020, published 2023).

Legend:
[1] = molecular target: T1, human PD-1/PD-L1 binding (Homo sapiens, UniProt Q9NZQ7); assay: Inhibition of human PD-1/PD-L1 binding (TR-FRET/HTRF); conditions: TR-FRET, PD-L1-His and PD-1-Fc; read-out: PD-1/PD-L1 binding IC50
T1 construct: PD-L1-His protein (19 to 238 amino acids) (Abcam #ab167713); purchased Abcam (PD-L1-His); R&D (PD-1-Fc) ab167713; 1086-PD
T1 sequence (Q9NZQ7 19-238): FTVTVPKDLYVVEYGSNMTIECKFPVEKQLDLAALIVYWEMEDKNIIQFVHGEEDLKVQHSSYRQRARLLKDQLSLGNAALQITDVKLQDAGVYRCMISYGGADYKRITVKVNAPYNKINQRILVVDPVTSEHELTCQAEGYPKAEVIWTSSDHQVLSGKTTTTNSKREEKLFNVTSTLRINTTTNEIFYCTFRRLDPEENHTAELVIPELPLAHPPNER
From the text: Test Embodiment 1: Test of Inhibitory Effect of the Compounds of the Present Disclosure on Human PD-1/PD-L1 Binding
Experimental purpose: The purpose of this test embodiment was to measure the inhibitory activity of the compounds on human PD-1/PD-L1 binding.
Experimental reagents: Binding Domain diluent buffer was purchased from Cisbio Company, Cat. No.: 62DLBDDF; MAb Anti-6HIS Eu cryptate Gold was purchased from Cisbio Company with the article number of 61HI2KLA; PAb Anti Human IgG-XL665 was purchased from Cisbio Company with the article number of 61HFCXLB; PD-L1-His protein was purchased from Abcam Company with the article number of ab167713; PD-1-Fc protein was purchased from R&D Company with the article number of 1086-PD; Detection buffer was purchased from Cisbio Company with the article number of 62SDBRDD; 384-well plate was purchased from PerkinElmer Company with the article number of 6007290.
Experimental method: In order to test the inhibitory activity of the compounds on human PD-1/PD-L1 binding, the method of time-resolved fluorescence resonance energy transfer (TR-FRET) was used in this experiment to test the inhibition of the compounds on human PD-1/PD-L1 binding, and the half inhibitory concentration IC50 of inhibitory activity of the compounds on human PD-1/PD-L1 binding was obtained.
This experiment was performed in a 384-well plate with a total reaction volume of 20 μL. Compounds were diluted to different concentrations (10 μM or 1 μM starting, 3-fold dilution, 11 doses) using assay buffer Binding Domain diluent buffer (Cisbio #62DLBDDF), then PD-L1-His protein (19 to 238 amino acids) (Abcam #ab167713) was diluted to 10 nM with assay buffer, and PD-1-Fc protein (25 to 167 amino acids) (R&D #1086-PD) was diluted to 20 nM with assay buffer; the compound, PD-L1 protein and PD-1 protein were added to a 384-well plate respectively, and the total volume was 10 μL, then centrifuged at 1000 rpm for 1 minute to mix well, and incubated for 60 minutes at room temperature. Then 10 μL of a mixed solution of MAb Anti-6HIS Eu cryptate Gold (Cisbio #61HI2KLA) and PAb Anti Human IgG-XL665 (Cisbio #61HFCXLB) diluted by HTRF Detection buffer was added to each well, and centrifuged at 1000 rpm for 1 minute to mix well. The reaction was carried out at room temperature for 3 hours or at 4° C. overnight, then a microplate reader (BioTek Synergy H1) was put into for reading; the excitation wavelength was 340 nm, and the emission wavelengths were 620 nm and 665 nm.
The ratio of fluorescence readings at 620 nm and 665 nm (665 nm/620 nm) was calculated, and the inhibition rate was calculated.

[2] = molecular target: T2, PD-L1 protein on the surface of MC38-hPDL1 tumor cells (Homo sapiens, UniProt Q9NZQ7); assay: Induction of endocytosis of PD-L1 on the surface of tumor cells (flow cytometry); assay type: cell-based; conditions: 16 hours incubation; for Emax: MC38-hPDL1 cells, read-out: MC38 maximum endocytosis rate; for IC50: inducing endocytosis of PD-L1, MC38-hPDL1 cells, read-out: MC38 IC50
T2 construct: expressed in transfected cells; host or cells: MC38-hPDL1 (mouse colon cancer cells)
T2 sequence (Q9NZQ7 19-290): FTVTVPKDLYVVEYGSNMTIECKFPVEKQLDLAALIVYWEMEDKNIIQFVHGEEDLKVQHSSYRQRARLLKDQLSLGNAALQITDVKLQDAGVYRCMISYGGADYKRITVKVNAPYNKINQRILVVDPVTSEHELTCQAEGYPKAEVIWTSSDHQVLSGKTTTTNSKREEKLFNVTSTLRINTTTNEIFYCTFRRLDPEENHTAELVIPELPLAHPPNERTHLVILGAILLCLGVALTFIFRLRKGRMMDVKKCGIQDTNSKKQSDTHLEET
From the text: Test Embodiment 2. Test of the Activity of Compounds of the Present Disclosure on Inducing the Endocytosis of PD-L1 Protein on the Surface of Tumor Cells
Experimental purpose: The purpose of this test embodiment was to test the activity of the compound on inducing the endocytosis of PD-L1 on the surface of tumor cells.
Experimental method: In order to test the activity of the compound on inducing the endocytosis of PD-L1, in this experiment, the activity of the compound on inducing the endocytosis of PD-L1 was tested by detecting the change degree of PD-L1 on the tumor cell surface with fluorescently labeled anti-PD-L1 antibody, and the IC50 of activity of the compound on inducing the endocytosis of PD-L1 was obtained.
The mouse colon cancer cells MC38-hPDL1 with high expression of hPD-L1 were collected, and adjusted to a suitable density and plated in a 24-well plate, and placed in a 37° C., 5% CO2 incubator to adhere overnight. Compounds were prepared into different concentrations by medium and added to a 24-well plate, and a vehicle control well was set up. After the cells were incubated in a 37° C., 5% CO2 incubator for 16 hours, the 24-well plate was taken out, and MC38-hPDL1 cells with different treatments in the plate were collected. After the cells were washed once with FACS buffer (PBS containing 0.5% BSA), and the cells were prepared to an appropriate density with FACS buffer. PE Mouse Anti-Human CD274 antibody (BD Pharmingen #557924) was added, and the cells were shaken at room temperature and incubated for 30 minutes without light, then the cells were washed twice with FACS buffer, resuspended in 100 μL of PBS, and a flow cytometer was used to detect the fluorescent signal on the cell surface, and the isotype control was set as a negative control.
The endocytosis rate of the compounds was calculated from the fluorescence signals of different treatment groups, and the compound concentration and endocytosis rate were fitted by nonlinear regression using GraphPad Prism software, and IC50 values were obtained, as shown in Table 2.

IC50 [1] [nM] | Emax [2] [%] | IC50 [2] [nM] | SMILES
2.7 |  |  | COc1cc(NCc2cnc(C(=O)Nc3cccc(-c4cccc(NC(=O)c5nc6c(n5C)CCN(CC5CC5)C6)c4Cl)c3Cl)cc2OC)ccn1 [Embodiment 83, 5-(Cyclopropylmethyl)-N-(2,2′-dichloro-3′-(4-methoxy-5-(((2-methoxypyridin-4-yl)amino)methyl)picolinamido)-[1,1′-biphenyl]-3-yl)-1-methyl-4,5,6,7-tetrahydro-1H-imidazo[4,5-c]pyridine-2-carboxamide]
8.5 |  |  | Cc1nccc(NCc2ccc(C(=O)Nc3cccc(-c4cccc(NC(=O)c5nc6c(n5C)CCN(C)C6)c4Cl)c3C)nc2)c1F [Embodiment 105, N-(2-Chloro-3′-(5-(((3-fluoro-2-methylpyridin-4-yl)amino)methyl)picolinamido)-2′-methyl-[1,1′-biphenyl]-3-yl)-1,5-dimethyl-4,5,6,7-tetrahydro-1H-imidazo[4,5-c]pyridine-2-carboxamide]
9 |  |  | CCN1CCc2c(nc(C(=O)Nc3cccc(-c4cccc(NC(=O)c5cc(OC)c(CO)cn5)c4C)c3Cl)n2C)C1 [Embodiment 88, N-(2-Chloro-3′-(5-(hydroxymethyl)-4-methoxypicolinamido)-2′-methyl-[1,1′-biphenyl]-3-yl)-5-ethyl-1-methyl-4,5,6,7-tetrahydro-1H-imidazo[4,5-c]pyridine-2-carboxamide]
8.4 |  |  | COc1cc(CN2CC(F)C2)cnc1C(=O)Nc1cccc(-c2cccc(NC(=O)c3nc4c(n3C)CCN(C)C4)c2Cl)c1C [Embodiment 108, N-(2-Chloro-3′-(5-((3-fluoroazetidin-1-yl)methyl)-3-methoxypicolinamido)-2′-methyl-[1,1′-biphenyl]-3-yl)-1,5-dimethyl-4,5,6,7-tetrahydro-1H-imidazo[4,5-c]pyridine-2-carboxamide]
 | 95 | 0.9 | COc1cc(C(=O)Nc2cccc(-c3cccc(NC(=O)c4nc5c(n4C)CCN(C)C5)c3Cl)c2C)ncc1CN1CC[C@@H](F)C1 [Embodiment 25, (R)—N-(2-Chloro-3′-(5-((3-fluoropyrrolidin-1-yl)methyl)-4-methoxypicolinamido)-2′-methyl-[1,1′-biphenyl]-3-yl)-1,5-dimethyl-4,5,6,7-tetrahydro-1H-imidazo[4,5-c]pyridine-2-carboxamide]
 | 89 |  | COc1nc(-c2cccc(-c3cccc(NC(=O)c4nc5c(n4C)CCN(C)C5)c3Cl)c2Cl)ccc1CN1CCN(S(C)(=O)=O)CC1 [Embodiment 204, N-(2,2′-Dichloro-3′-(6-methoxy-5-((4-(methylsulfonyl)piperazin-1-yl)methyl)pyridin-2-yl)-[1,1′-biphenyl]-3-yl)-1,5-dimethyl-4,5,6,7-tetrahydro-1H-imidazo[4,5-c]pyridine-2-carboxamide]
9 |  |  | COc1cc(C(=O)Nc2cccc(-c3cccc(NC(=O)c4nc5c(n4C)CCN(C)C5)c3Cl)c2C)ncc1C(C)(C)O [Embodiment 50, N-(2-Chloro-3′-(5-(2-hydroxypropan-2-yl)-4-methoxypicolinamido)-2′-methyl-[1,1′-biphenyl]-3-yl)-1,5-dimethyl-4,5,6,7-tetrahydro-1H-imidazo[4,5-c]pyridine-2-carboxamide]
9.1 |  |  | CNC(=O)CNCc1ccc(-c2cccc(-c3cccc(NC(=O)c4nc5c(n4C)CCN(C)C5)c3Cl)c2Cl)nc1OC [Embodiment 140, N-(2,2′-Dichloro-3′-(6-methoxy-5-(((2-(methylamino)-2-carbonylethyl)amino)methyl)pyridin-2-yl)-[1,1′-biphenyl]-3-yl)-1,5-dimethyl-4,5,6,7-tetrahydro-1H-imidazo[4,5-c]pyridine-2-carboxamide]
 | 85 | 7 | COc1cc(C(=O)Nc2cccc(-c3cccc(NC(=O)c4nc5c(n4C)CCN(C)C5)c3Cl)c2C)ncc1CNCC1(F)CCOCC1 [Embodiment 19, N-(2-Chloro-3′-(5-((((4-fluorotetrahydro-2H-pyran-4-yl)methyl)amino)methyl)-4-methoxypicolinamido)-2′-methyl-[1,1′-biphenyl]-3-yl)-1,5-dimethyl-4,5,6,7-tetrahydro-1H-imidazo[4,5-c]pyridine-2-carboxamide]
 | 81 | 4 | COc1cc(NCc2cnc(C(=O)Nc3cccc(-c4cccc(NC(=O)c5nc6c(n5C)CCN(C(C)C)C6)c4Cl)c3C)cc2OC)ccn1 [Embodiment 70, N-(2-Chloro-3′-(4-methoxy-5-(((2-methoxypyridin-4-yl)amino)methyl)picolinamido)-2′-methyl-[1,1′-biphenyl]-3-yl)-5-isopropyl-1-methyl-4,5,6,7-tetrahydro-1H-imidazo[4,5-c]pyridine-2-carboxamide]
 | 84 | 6.5 | COc1ccnc(NCc2cnc(C(=O)Nc3cccc(-c4cccc(NC(=O)c5nc6c(n5C)CCN(C)C6)c4Cl)c3C)cc2OC)c1 [Embodiment 12, N-(2-Chloro-3′-(4-methoxy-5-(((4-methoxypyridin-2-yl)amino)methyl)picolinamido)-2′-methyl-[1,1′-biphenyl]-3-yl)-1,5-dimethyl-4,5,6,7-tetrahydro-1H-imidazo[4,5-c]pyridine-2-carboxamide]
 | 89 |  | COc1nc(-c2cccc(-c3cccc(NC(=O)c4nc5c(n4C)CCN(C)C5)c3Cl)c2Cl)ccc1CN1CCN(C(=O)C(F)(F)F)CC1 [Embodiment 202, N-(2,2′-Dichloro-3′-(6-methoxy-5-((4-(2,2,2-trifluoroacetyl)piperazin-1-yl)methyl)pyridin-2-yl)-[1,1′-biphenyl]-3-yl)-1,5-dimethyl-4,5,6,7-tetrahydro-1H-imidazo[4,5-c]pyridine-2-carboxamide]
 | 88 | 4.2 | COc1cc(NCc2cnc(C(=O)Nc3cccc(-c4cccc(NC(=O)c5nc6c(n5C)CCN(C)C6)c4Cl)c3C)cc2C2CC2)ccn1 [Embodiment 44, N-(2-Chloro-3′-(4-cyclopropyl-5-(((2-methoxypyridin-4-yl)amino)methyl)picolinamido)-2′-methyl-[1,1′-biphenyl]-3-yl)-1,5-dimethyl-4,5,6,7-tetrahydro-1H-imidazo[4,5-c]pyridine-2-carboxamide]
 | 87 | 6.6 | COc1cc(C(=O)Nc2cccc(-c3cccc(NC(=O)c4nc5c(n4C)CCN(C)C5)c3Cl)c2C)ncc1CNCc1ncccc1OC [Embodiment 13, N-(2-Chloro-3′-(4-methoxy-5-((((3-methoxypyridin-2-yl)methyl)amino)methyl)picolinamido)-2′-methyl-[1,1′-biphenyl]-3-yl)-1,5-dimethyl-4,5,6,7-tetrahydro-1H-imidazo[4,5-c]pyridine-2-carboxamide]
